Read-outs that look alike come from different tables or passages of the source.
Columns and labels:
Sprague-Dawley rats = test: Formalin test in rat pain models (flinching action, second phase); format: in vivo
Description: Analgesic activities were determined in the formalin test. Four test groups [a control group (given a saline solution) and groups given 30, 100 and 300 mg/kg of gabapentin] each composed of 6 to 7 male Sprague-Dawley rats (SD rats, 9 weeks old) were used for the experiment. Gabapentin was dissolved in a saline solution.
4 ml/kg of a saline solution or gabapentin was orally administered to the rats. Three hours after, the rats were tranquilized with halothane, and 2.5% formalin solution (100 μl) was injected subcutaneously to dorsal surface of the left hindpaw. Immediately thereafter, the rats were awaken from the anesthesia. […] The number of times of retracting action, i.e., flinching action of the hindpaw in which formalin had been injected, was counted for 1 minute at an interval of one minute until 5 minutes after the formalin injection, and for 1 minute at an interval of 5 minutes from 10 to 60 minutes after the injection. […] The total number of times of the flinching action observed 10 to 60 minutes after the formalin injection (the second phase) was taken as the index of the pain action.
Analgesic activities were determined in the formalin test. Four test groups [a control group, a group given the compound A (the compound of Referential Example 11: 3 mg/kg), a group given 100 mg/kg of gabapentin and a group given a combination of 3 mg/kg of the compound A and 100 mg/kg of gabapentin] each composed of 6 to 7 male Sprague-Dawley rats (SD rats, 9 weeks old) were used for the experiment. The administration volume to each group was as follows. In the control group, 5 ml/kg of 0.5% tragacanth solution and 4 ml/kg of a saline solution were given orally to the rats. In the group given the compound A, 5 ml/kg of the compound A suspended in 0.5% tragacanth solution and 4 ml/kg of a saline solution were given orally to them. In the group given gabapentin, 5 ml/kg of 0.5% tragacanth solution and 4 ml/kg of gabapentin dissolved in a saline solution were given orally to them. In the group given a combination of the compound A and gabapentin, 5 ml/kg of the compound A suspended in 0.5% tragacanth solution and 4 ml/kg of gabapentin dissolved in a saline solution were given orally to them.
Analgesic activities were determined in the formalin test. Four test groups [a control group, a group given the compound B (the compound of Referential Example 71: 3 mg/kg), a group given 100 mg/kg of gabapentin and a group given a combination of 3 mg/kg of the compound B and 100 mg/kg of gabapentin] each composed of 6 male Sprague-Dawley rats (SD rats, 9 weeks old) were used for the experiment. The administration volume to each group was as follows. In the control group, 3 ml/kg of polyethylene glycol 400 (PEG) and 4 ml/kg of a saline solution were given orally to the rats. In the group given the compound B, 3 ml/kg of the compound B dissolved in PEG and 4 ml/kg of a saline solution were given orally to them. In the group given gabapentin, 3 ml/kg of PEG and 4 ml/kg of gabapentin dissolved in a saline solution were given orally to them. In the group given the combination of compound B and gabapentin, 3 ml/kg of the compound B dissolved in PEG and 4 ml/kg of gabapentin dissolved in a saline solution were given orally to them.
Analgesic activities were determined in the formalin test. Four test groups [a control group (given a saline solution) and groups given 10, 30 and 100 mg/kg of pregabalin] each composed of 6 male Sprague-Dawley rats (SD rats, 9 weeks old) were used for the experiment. Pregabalin was dissolved in a saline solution. 4 ml/kg of a saline solution or pregabalin was orally administered to the rats.
Analgesic activities were determined in the formalin test.

[1] = patients with post-herpetic neuralgia (Acta Neurol. Scand. 101:359-371, 2000); cited from earlier work
[2] = cited from earlier work
[3] = clinical use; cited from earlier work
N-type calcium channel = biological target: T1, N-type calcium channel (Homo sapiens, UniProt Q00975); test: Antagonistic activity on N-type calcium channel (fluorescence dye method, IMR-32 cells); format: cell-based; conditions: 10 μM test compound, 60 mM KCl stimulation, 1 μM Nifedipine, read-out: Antagonistic activity on N-type calcium channels at 10 μM Inhibition rate (%)
T1 construct: host or cells: IMR-32 human neuroblastoma cells, differentiated with dibutyl cAMP and 5-bromodeoxyuridine for 10 to 14 days
Description: Antagonistic Activity on N-Type Calcium Channel (Fluorescence Dye Method)
Human neuroblastoma cells IMR-32 were obtained from ATCC (American Type Culture Collection). The medium used was a Phenol Red-free Eagle minimum essential medium containing earle's salts supplement (GIBCO) supplemented with 2 mM of L-glutamine (GIBCO), 1 mM of sodium pyruvate (pH 6.5) (GIBCO), antibiotic/antimycotic mixture (GIBCO) and 10% fetal calf serum (Cell Culture Technologies). 3 ml of 1×10^5 cells/ml IMR-32 cells were spread on the glass bottom of a dish (Iwaki Glsss Co., Ltd.) having a diameter of 35 mm which had been treated with poly-L-lysin (SIGMA) and collagen (COLLAGEN VITROGEN 100; Collagen Co.). After the culture for 1 day, 1 mM (final concentration) of dibutyl cAMP and 2.5 μM (final concentration) of 5-bromodeoxyuridine (SIGMA) were added. After the culture for additional 10 to 14 days, the cells were subjected to the activity determination.
The medium for IMR-32 cells thus prepared was replaced with 1 ml of Phenol Red-free and earle's salts supplemented Eagle minimum essential medium (GIBCO) containing 2.5 μM fura-2/AM (Dojin Kagaku, Co.), and the incubation was conducted at 37° C. for 30 minutes. […] Antagonistic activity on N-type calcium channel was determined and analyzed using a fluorescence microscope (Nikon Corporation) and an image analysis device ARGUS 50 (Hamamatsu Photonics). […]

T1 sequence (Q00975 whole entry): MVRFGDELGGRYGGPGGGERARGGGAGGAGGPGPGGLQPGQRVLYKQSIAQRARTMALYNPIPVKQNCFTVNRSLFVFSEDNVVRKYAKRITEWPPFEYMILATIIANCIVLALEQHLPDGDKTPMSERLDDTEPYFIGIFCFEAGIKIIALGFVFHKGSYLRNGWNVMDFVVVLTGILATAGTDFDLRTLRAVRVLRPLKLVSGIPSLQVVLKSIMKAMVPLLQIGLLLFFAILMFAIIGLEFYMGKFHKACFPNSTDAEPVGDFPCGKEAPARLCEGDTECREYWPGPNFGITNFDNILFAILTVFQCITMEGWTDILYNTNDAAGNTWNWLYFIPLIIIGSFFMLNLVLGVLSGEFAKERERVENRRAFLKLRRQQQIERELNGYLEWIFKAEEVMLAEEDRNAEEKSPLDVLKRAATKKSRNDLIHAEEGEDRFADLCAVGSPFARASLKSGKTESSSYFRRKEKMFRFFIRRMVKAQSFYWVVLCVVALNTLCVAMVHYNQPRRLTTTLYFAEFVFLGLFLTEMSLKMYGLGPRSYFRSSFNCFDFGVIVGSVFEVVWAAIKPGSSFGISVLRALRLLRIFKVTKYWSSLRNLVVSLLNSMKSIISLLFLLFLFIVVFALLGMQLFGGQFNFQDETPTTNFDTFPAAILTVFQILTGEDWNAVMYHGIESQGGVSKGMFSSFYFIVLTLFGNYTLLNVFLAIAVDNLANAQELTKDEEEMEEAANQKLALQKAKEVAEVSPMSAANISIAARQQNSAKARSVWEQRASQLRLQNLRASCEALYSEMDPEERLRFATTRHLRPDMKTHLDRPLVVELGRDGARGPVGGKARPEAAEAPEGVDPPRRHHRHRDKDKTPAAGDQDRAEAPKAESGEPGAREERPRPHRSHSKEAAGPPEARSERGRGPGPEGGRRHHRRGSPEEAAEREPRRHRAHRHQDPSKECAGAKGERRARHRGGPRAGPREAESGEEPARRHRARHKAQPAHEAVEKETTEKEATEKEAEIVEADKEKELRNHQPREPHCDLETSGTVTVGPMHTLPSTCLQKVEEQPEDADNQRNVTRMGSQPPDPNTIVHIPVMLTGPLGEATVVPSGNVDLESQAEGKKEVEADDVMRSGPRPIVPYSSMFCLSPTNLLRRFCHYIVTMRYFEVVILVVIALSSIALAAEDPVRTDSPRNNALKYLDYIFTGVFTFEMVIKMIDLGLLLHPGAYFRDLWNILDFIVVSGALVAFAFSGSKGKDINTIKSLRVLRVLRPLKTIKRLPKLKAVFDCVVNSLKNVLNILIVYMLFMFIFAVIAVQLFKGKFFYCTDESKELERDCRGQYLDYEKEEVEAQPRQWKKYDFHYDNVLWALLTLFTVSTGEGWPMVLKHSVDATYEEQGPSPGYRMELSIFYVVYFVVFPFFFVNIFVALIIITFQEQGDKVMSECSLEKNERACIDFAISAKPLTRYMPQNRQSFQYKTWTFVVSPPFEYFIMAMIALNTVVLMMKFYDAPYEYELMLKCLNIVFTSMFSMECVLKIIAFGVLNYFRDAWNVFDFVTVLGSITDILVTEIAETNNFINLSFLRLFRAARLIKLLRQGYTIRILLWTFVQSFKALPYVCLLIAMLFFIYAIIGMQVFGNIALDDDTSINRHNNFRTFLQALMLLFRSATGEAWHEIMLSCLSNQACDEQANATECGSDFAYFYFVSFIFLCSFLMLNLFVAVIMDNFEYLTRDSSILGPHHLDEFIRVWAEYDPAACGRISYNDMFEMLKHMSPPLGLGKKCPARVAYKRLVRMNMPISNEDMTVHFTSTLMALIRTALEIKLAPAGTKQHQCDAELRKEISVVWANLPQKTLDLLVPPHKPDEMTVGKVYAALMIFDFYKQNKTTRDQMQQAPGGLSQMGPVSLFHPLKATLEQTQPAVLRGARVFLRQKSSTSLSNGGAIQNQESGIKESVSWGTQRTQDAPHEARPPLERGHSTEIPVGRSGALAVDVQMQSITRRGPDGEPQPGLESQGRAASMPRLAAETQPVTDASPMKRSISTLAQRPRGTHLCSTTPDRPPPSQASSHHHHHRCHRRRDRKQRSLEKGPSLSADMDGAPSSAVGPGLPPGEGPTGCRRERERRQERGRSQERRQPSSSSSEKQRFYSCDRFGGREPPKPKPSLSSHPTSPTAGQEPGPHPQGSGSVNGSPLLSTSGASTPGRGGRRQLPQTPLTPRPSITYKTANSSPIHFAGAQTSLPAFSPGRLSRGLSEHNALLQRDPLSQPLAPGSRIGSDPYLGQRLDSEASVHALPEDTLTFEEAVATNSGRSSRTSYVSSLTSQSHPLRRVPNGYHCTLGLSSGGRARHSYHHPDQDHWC
T1 sequence (Q02641 whole entry partner): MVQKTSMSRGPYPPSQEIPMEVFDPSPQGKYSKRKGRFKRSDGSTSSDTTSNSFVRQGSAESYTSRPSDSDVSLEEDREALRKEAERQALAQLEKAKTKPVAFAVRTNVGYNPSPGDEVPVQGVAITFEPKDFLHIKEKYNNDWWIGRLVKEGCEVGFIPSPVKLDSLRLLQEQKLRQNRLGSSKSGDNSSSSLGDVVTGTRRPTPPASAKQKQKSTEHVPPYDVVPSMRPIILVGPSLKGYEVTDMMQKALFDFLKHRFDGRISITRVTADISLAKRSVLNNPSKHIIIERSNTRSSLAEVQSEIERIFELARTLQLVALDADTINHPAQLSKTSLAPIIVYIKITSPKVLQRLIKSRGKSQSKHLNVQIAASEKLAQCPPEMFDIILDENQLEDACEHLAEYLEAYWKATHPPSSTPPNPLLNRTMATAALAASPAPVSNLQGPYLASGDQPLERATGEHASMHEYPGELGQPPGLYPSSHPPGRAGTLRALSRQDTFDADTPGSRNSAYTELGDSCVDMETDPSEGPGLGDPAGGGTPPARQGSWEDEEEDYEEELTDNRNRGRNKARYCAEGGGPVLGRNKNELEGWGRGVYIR
T1 sequence (P54289 25-956 partner limits assumed): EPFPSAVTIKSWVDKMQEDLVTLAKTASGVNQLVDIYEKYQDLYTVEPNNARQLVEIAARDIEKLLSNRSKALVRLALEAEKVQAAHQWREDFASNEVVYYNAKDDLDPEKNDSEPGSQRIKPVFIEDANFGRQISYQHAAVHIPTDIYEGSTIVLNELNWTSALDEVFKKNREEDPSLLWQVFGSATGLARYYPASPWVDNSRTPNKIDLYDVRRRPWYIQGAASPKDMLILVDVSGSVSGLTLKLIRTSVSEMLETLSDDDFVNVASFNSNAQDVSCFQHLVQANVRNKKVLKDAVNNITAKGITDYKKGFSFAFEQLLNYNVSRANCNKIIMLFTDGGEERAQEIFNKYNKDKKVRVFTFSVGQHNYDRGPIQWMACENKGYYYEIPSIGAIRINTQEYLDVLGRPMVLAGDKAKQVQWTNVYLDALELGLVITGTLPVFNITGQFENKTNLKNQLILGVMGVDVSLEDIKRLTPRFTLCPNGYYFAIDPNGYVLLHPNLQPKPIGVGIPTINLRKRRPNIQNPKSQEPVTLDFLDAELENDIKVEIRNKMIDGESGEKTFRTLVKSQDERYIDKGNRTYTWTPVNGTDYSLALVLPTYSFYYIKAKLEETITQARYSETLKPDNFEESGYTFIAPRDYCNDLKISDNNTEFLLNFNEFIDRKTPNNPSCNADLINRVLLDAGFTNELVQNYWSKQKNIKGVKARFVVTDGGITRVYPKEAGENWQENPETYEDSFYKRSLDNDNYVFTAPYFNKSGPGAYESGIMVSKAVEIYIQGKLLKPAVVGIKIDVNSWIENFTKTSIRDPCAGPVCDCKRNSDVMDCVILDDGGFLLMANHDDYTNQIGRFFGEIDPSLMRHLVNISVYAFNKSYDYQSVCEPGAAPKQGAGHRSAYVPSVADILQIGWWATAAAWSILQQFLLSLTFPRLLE
T1 sequence (P54289 957-1103 partner limits assumed): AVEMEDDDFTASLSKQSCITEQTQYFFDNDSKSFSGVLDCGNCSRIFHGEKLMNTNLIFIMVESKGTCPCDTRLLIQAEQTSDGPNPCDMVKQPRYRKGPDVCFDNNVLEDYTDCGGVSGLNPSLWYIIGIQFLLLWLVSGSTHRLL

## NCC1(CC(=O)O)CCCCC1 [gabapentin, 1-(aminomethyl)-cyclohexaneacetic acid]
Sprague-Dawley rats; Example 1, 30 mg/kg oral, vs control group
  inhibiting ratio of flinches: 11%
Sprague-Dawley rats; Example 1, 100 mg/kg oral, vs control group
  inhibiting ratio of flinches: 42%
Sprague-Dawley rats; Example 1, 300 mg/kg oral, vs control group
  inhibiting ratio of flinches: 47%
Sprague-Dawley rats; Example 2, 100 mg/kg oral
  inhibiting ratio of flinches: 47%
Sprague-Dawley rats; Example 3, 100 mg/kg oral
  inhibiting ratio of flinches: 59%
[1]
  treatment effectiveness: approximately 60%
[2]; whole body administration of 300 mg/kg or more
  motor function of the body: significant decrease in motor function of the body
[3]
  side-effects: somnolence and dizziness

## CC(C)C[C@H](CN)CC(=O)O [pregabalin, (S)-3-(aminomethyl)-5-methylhexanoic acid]
Sprague-Dawley rats; Example 4, 10 mg/kg oral, vs control group
  inhibiting ratio of flinches: 31%
Sprague-Dawley rats; Example 4, 30 mg/kg oral, vs control group
  inhibiting ratio of flinches: 61%
Sprague-Dawley rats; Example 4, 100 mg/kg oral, vs control group
  inhibiting ratio of flinches: 61%
Sprague-Dawley rats; Example 5, 30 mg/kg oral
  inhibiting ratio of flinches: 48%
[2]; whole body administration of 100 mg/kg or more
  motor function of the body: significant decrease in motor function of the body
[3]
  side-effects: somnolence and dizziness

## CC(C)(C)C(=O)N[C@H](CO)CCC(=O)N1CCC(=C2c3ccccc3C=Cc3ccccc32)CC1 [Referential Example 71, (S)-N-[4-[4-(5H-dibenzo[a,d] [7]annulen-5-ylidene)-1-piperidinyl]-1-(hydroxylmethyl)-4-oxobutyl]-2.2-dimethylpropanamide]
Sprague-Dawley rats; Example 3, 3 mg/kg oral, dissolved in PEG
  inhibiting ratio of flinches: 16%
Sprague-Dawley rats; Example 5, 3 mg/kg oral, dissolved in PEG
  inhibiting ratio of flinches: 7%

## CC(C)(C)CC(=O)NCCCNC(=O)C=C1c2ccccc2C=Cc2ccccc21 [Example 41]
N-type calcium channel
  inhibition at 10 µM: 76%

## CC(C)(C)C(=O)NCCC(=O)N1CCC(=C2c3ccccc3C=Cc3ccccc32)CC1 [Referential Example 11, N-{3-[4-(5H-dibenzo[a, d] [7]annulen-5-ylidene)-1-piperidinyl]-3-oxopropyl}-2,2-dimethylpropanamide]
Sprague-Dawley rats; Example 2, 3 mg/kg oral, suspended in 0.5% tragacanth
  inhibiting ratio of flinches: 38%
